# In paper PMC6943726, “Discovery of 8-Amino-Substituted 2-Phenyl-2,7-Naphthyridinone Derivatives as New c-Kit/VEGFR-2 Kinase Inhibitors” (Molecules, 2019):
# pIC50: −log10 of the molar value.
# Assays:
# Format in all cases: biochemical
# MET = target: T1, MET (Homo sapiens, UniProt P08581); experiment: HTRF enzyme assay with recombinant MET kinase domain; conditions: purified recombinant MET kinase domain, read-out: Inhibitory Activity, IC50, MET
# T1 construct: was evaluated using an enzyme assay with a recombinant kinase domain; purchased Invitrogen (Carlsbad, CA, US)
# T1 sequence (P08581 1078-1345 limits assumed): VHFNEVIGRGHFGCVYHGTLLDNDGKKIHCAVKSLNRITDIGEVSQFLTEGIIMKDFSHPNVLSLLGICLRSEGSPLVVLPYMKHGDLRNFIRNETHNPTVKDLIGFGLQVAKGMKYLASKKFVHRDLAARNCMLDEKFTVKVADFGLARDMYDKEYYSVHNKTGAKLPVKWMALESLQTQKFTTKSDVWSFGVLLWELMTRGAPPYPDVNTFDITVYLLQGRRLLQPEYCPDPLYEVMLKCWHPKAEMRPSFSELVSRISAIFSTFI
# Experimental: (§1) The ability of the synthesized compounds to inhibit MET, c-Kit, and VEGFR-2 activities was evaluated using an enzyme assay with a recombinant kinase domain [29]. Based on the structure activity relationship (SAR) of MET inhibitors, we proposed that the removal of the key diaryl ether fragments in compound 3 would result in a loss of MET activity.
# (§2) The ability of compounds to inhibit the activity of three kinases (MET, c-Kit, and VEGFR-2) was tested in vitro [30]. Enzyme assays were run in homogeneous time-resolved fluorescence (HTRF) format in 384-well microtiter plates using purified kinases purchased from Invitrogen (Carlsbad, CA, US). The HTRF KinEASE TK kit (contains substrate-biotin, antibody-cryptate, streptavidin-XL665, 5×enzymatic buffer, and detection buffer) was purchased from Cisbio (Codolet, France), and the kinase assays were performed according to the manufacturer’s instructions. After the kinases and the compounds incubated at 25~30 °C for 5 min, the reactions were initiated by the addition of 2 μL of mixed substrate solution (mixed solution of ATP (Sigma, Shanghai, China) and substrate-biotin). The final concentrations of kinases were at EC80 and the total reaction volume was 8 μL. Plates were incubated at 30 °C for 30~60 min, then the reactions were quenched by the addition 8 μL mixed detection solution (mixed solution of antibody-cryptate and streptavidin-XL665 in detection buffer). The fluorescence excitation wavelength was […]. The fluorescence at 665 nm (acceptor emission wavelength) and 620 nm (donor emission wavelength) was measured with a PHERAstar FS plate reader (BMG, LABTECH, Ortenberg, Germany) using a time delay of 50 μs. All kinase assays were conducted using ATP concentrations below the enzyme Kmapp and kinase-specific biotinylated substrate peptides.
# (§3) The data for dose responses were plotted as percentage of inhibition calculated with the data reduction formula 100 × [1 − (U1 − C2)/(C1 − C2)] versus concentration of compound, where U is the emission ratio of 665 nm and 620 nm of test sample, C1 is the average value obtained for solvent control (2% DMSO), and C2 is the average value obtained for no reaction control (no kinase sample). Inhibition curves were generated by plotting percentage of control activity versus log10 of the concentration of each […]. The IC50 values were calculated by nonlinear regression with Graphpad Prism 5 (GraphPad Software, San Diego, CA).
# c-Kit = target: T2, c-Kit (Homo sapiens, UniProt P10721); experiment: HTRF enzyme assay with recombinant c-Kit kinase domain; conditions: for pIC50: purified recombinant c-Kit kinase domain, HTRF, read-out: Inhibitory Activity, IC50, c-Kit
# T2 construct: was evaluated using an enzyme assay with a recombinant kinase domain; purchased Invitrogen (Carlsbad, CA, US)
# T2 sequence (P10721 589-937 limits assumed): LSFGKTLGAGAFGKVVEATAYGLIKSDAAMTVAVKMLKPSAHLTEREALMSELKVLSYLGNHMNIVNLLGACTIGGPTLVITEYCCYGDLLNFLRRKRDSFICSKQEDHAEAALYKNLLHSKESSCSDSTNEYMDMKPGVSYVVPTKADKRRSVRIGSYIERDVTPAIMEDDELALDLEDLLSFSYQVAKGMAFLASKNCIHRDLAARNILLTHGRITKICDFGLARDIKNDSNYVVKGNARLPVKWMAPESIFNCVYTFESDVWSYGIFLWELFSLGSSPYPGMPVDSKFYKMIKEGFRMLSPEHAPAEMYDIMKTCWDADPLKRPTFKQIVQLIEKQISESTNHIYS
# Experimental: as §1, §2, §3
# VEGFR-2 = target: T3, VEGFR-2 (Homo sapiens, UniProt P35968); experiment: HTRF enzyme assay with recombinant VEGFR-2 kinase domain; conditions: for pIC50: purified recombinant VEGFR-2 kinase domain, HTRF, read-out: Inhibitory Activity, IC50, VEGFR-2; for VEGFR-2 potency, fold more potent than compound 3: ratio of IC50 values vs compound 3
# T3 construct: was evaluated using an enzyme assay with a recombinant kinase domain; purchased Invitrogen (Carlsbad, CA, US)
# T3 sequence (P35968 834-1162 limits assumed): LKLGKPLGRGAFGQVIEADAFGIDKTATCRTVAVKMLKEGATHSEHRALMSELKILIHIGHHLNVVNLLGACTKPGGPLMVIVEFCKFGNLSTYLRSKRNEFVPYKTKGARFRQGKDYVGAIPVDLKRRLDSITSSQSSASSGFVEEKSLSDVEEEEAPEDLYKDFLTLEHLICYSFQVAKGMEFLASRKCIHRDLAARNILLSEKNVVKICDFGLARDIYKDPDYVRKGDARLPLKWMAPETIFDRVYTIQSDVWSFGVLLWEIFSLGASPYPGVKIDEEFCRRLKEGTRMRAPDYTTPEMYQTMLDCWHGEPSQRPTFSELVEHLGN
# Experimental: as §1, §2, §3
# [1] = ratio of IC50 values vs compound 3
SMILES,pIC50 (MET),pIC50 (c-Kit),pIC50 (VEGFR-2),"c-Kit potency, fold more potent than compound 3 (c-Kit; [1]) [fold]",c-Kit potency relative to compound 9g (c-Kit; compared with 9g),"VEGFR-2 potency, fold more potent than compound 3 (VEGFR-2)","c-Kit potency, fold less potent than compound 3 (c-Kit; [1]) [fold]",c-Kit inhibitory activity (in words) (c-Kit)
"O=c1c2c(NCc3ccnc4ccccc34)nccc2ccn1-c1ccc(F)cc1 [Compound 9k, 2-(4-fluorophenyl)-8-((quinolin-4-ylmethyl)amino)-2,7-naphthyridin-1(2H)-one]",< 5.30,8.07,6.62,38.8,–,–,–,–
"O=c1c2c(Nc3ccccc3)nccc2ccn1-c1ccc(F)cc1 [Compound 9a, 2-(4-fluorophenyl)-8-(phenylamino)-2,7-naphthyridin-1(2H)-one]",< 5.30,< 5.30,< 5.30,–,–,–,–,–
"Cc1cccc(C)c1Nc1nccc2ccn(-c3ccc(F)cc3)c(=O)c12 [Compound 9b, 8-((2,6-dimethylphenyl)amino)-2-(4-fluorophenyl)-2,7-naphthyridin-1(2H)-one]",< 5.30,< 5.30,< 5.30,–,–,–,–,–
"O=c1c2c(Nc3c(Cl)cccc3Cl)nccc2ccn1-c1ccc(F)cc1 [Compound 9c, 8-((2,6-dichlorophenyl)amino)-2-(4-fluorophenyl)-2,7-naphthyridin-1(2H)-one]",< 5.30,< 5.30,6.16,–,–,–,–,–
"O=c1c2c(NCc3cccnc3)nccc2ccn1-c1ccc(F)cc1 [Compound 9h, 2-(4-fluorophenyl)-8-((pyridin-3-ylmethyl)amino)-2,7-naphthyridin-1(2H)-one]",< 5.30,< 5.30,< 5.30,–,–,–,–,–
"O=c1c2c(Nc3cccnc3)nccc2ccn1-c1ccc(F)cc1 [Compound 9d, 2-(4-fluorophenyl)-8-(pyridin-3-ylamino)-2,7-naphthyridin-1(2H)-one]",< 5.30,< 5.30,< 5.30,–,–,–,–,–
"Nc1nccc(Oc2ccc(Nc3nccc4ccn(-c5ccc(F)cc5)c(=O)c34)cc2F)c1Cl [Compound 3, reference compound]",8.00,6.48,6.55,–,–,–,–,–
"O=c1c2c(Nc3ccc4ccncc4c3)nccc2ccn1-c1ccc(F)cc1 [Compound 9e, 2-(4-fluorophenyl)-8-(isoquinolin-7-ylamino)-2,7-naphthyridin-1(2H)-one]",< 5.30,< 5.30,< 5.30,–,–,–,–,–
"O=c1c2c(NCc3cccc4ccccc34)nccc2ccn1-c1ccc(F)cc1 [Compound 9j, 2-(4-fluorophenyl)-8-((naphthalen-1-ylmethyl)amino)-2,7-naphthyridin-1(2H)-one]",< 5.30,< 5.30,< 5.30,–,–,–,–,–
"O=c1c2c(NCc3ccco3)nccc2ccn1-c1ccc(F)cc1 [Compound 9i, 2-(4-fluorophenyl)-8-((furan-2-ylmethyl)amino)-2,7-naphthyridin-1(2H)-one]",< 5.30,< 5.30,< 5.30,–,–,–,–,–
"O=c1c2c(NCc3ccncc3)nccc2ccn1-c1ccc(F)cc1 [Compound 9g, 2-(4-fluorophenyl)-8-((pyridin-4-ylmethyl)amino)-2,7-naphthyridin-1(2H)-one]",< 5.30,6.08,6.22,–,–,–,2.5,–
"O=c1c2c(NCc3ccccc3)nccc2ccn1-c1ccc(F)cc1 [Compound 9f, 8-(benzylamino)-2-(4-fluorophenyl)-2,7-naphthyridin-1(2H)-one]",< 5.30,< 5.30,< 5.30,–,–,–,–,–

# Continued, in another order:
pIC50 (MET),pIC50 (c-Kit),pIC50 (VEGFR-2),"c-Kit potency, fold more potent than compound 3 (c-Kit; [1]) [fold]",c-Kit potency relative to compound 9g (c-Kit; compared with 9g),"VEGFR-2 potency, fold more potent than compound 3 (VEGFR-2)","c-Kit potency, fold less potent than compound 3 (c-Kit; [1]) [fold]",SMILES,c-Kit inhibitory activity (in words) (c-Kit)
< 5.30,< 5.30,< 5.30,–,–,–,–,"Cc1cc2ccnc(Nc3cccnc3)c2c(=O)n1-c1ccc(Cl)cc1 [Compound 10i, 2-(4-chlorophenyl)-3-methyl-8-(pyridin-3-ylamino)-2,7-naphthyridin-1(2H)-one]",–
< 5.30,< 5.30,6.58,–,–,–,–,"Cc1cc2ccnc(NCc3ccncc3)c2c(=O)n1-c1ccc(Cl)cc1 [Compound 10k, 2-(4-chlorophenyl)-3-methyl-8-((pyridin-4-ylmethyl)amino)-2,7-naphthyridin-1(2H)-one]",–
< 5.30,< 5.30,< 5.30,–,–,–,–,"Cc1cc2ccnc(NCc3cccnc3)c2c(=O)n1-c1ccccc1 [Compound 10f, 3-methyl-2-phenyl-8-((pyridin-3-ylmethyl)amino)-2,7-naphthyridin-1(2H)-one]",–
< 5.30,< 5.30,< 5.30,–,–,–,–,"Cc1cc2ccnc(Nc3cccnc3)c2c(=O)n1-c1ccc(F)cc1 [Compound 10a, 2-(4-fluorophenyl)-3-methyl-8-(pyridin-3-ylamino)-2,7-naphthyridin-1(2H)-one]",–
< 5.30,6.77,7.50,–,five-times more potent than compound 9g,5.0–8.8 fold,–,"Cc1cc2ccnc(NCc3ccnc4ccccc34)c2c(=O)n1-c1ccc(OC(F)(F)F)cc1 [Compound 10r, 3-methyl-8-((quinolin-4-ylmethyl)amino)-2-(4-(trifluoromethoxy)phenyl)-2,7-naphthyridin-1(2H)-one]",slightly stronger c-Kit inhibitory activity than compound 3
< 5.30,< 5.30,< 5.30,–,–,–,–,"Cc1cc2ccnc(Nc3cccnc3)c2c(=O)n1-c1ccc(OC(F)(F)F)cc1 [Compound 10m, 3-methyl-8-(pyridin-3-ylamino)-2-(4-(trifluoromethoxy)phenyl)-2,7-naphthyridin-1(2H)-one]",–
< 5.30,5.79,6.68,–,–,–,–,"Cc1cc2ccnc(NCc3ccnc4ccccc34)c2c(=O)n1-c1ccc(F)cc1 [Compound 10d, 2-(4-fluorophenyl)-3-methyl-8-((quinolin-4-ylmethyl)amino)-2,7-naphthyridin-1(2H)-one]",weak c-Kit inhibitory activity
< 5.30,< 5.30,< 5.30,–,–,–,–,"Cc1cc2ccnc(NCc3cccnc3)c2c(=O)n1-c1ccc(Cl)cc1 [Compound 10j, 2-(4-chlorophenyl)-3-methyl-8-((pyridin-3-ylmethyl)amino)-2,7-naphthyridin-1(2H)-one]",–
< 5.30,< 5.30,< 5.30,–,–,–,–,"Cc1cc2ccnc(NCc3cccnc3)c2c(=O)n1-c1ccc(F)cc1 [Compound 10b, 2-(4-fluorophenyl)-3-methyl-8-((pyridin-3-ylmethyl)amino)-2,7-naphthyridin-1(2H)-one]",–
< 5.30,6.97,7.25,–,–,5.0–8.8 fold,–,"Cc1cc2ccnc(NCc3ccnc4ccccc34)c2c(=O)n1-c1ccc(Cl)cc1 [Compound 10l, 2-(4-chlorophenyl)-3-methyl-8-((quinolin-4-ylmethyl)amino)-2,7-naphthyridin-1(2H)-one]",slightly stronger c-Kit inhibitory activity than compound 3
< 5.30,< 5.30,< 5.30,–,–,–,–,"Cc1cc2ccnc(NCc3cccc4ccccc34)c2c(=O)n1-c1ccc(OC(F)(F)F)cc1 [Compound 10q, 3-methyl-8-((naphthalen-1-ylmethyl)amino)-2-(4-(trifluoromethoxy)phenyl)-2,7-naphthyridin-1(2H)-one]",–
< 5.30,< 5.30,6.27,–,–,–,–,"Cc1cc2ccnc(NCc3ccncc3)c2c(=O)n1-c1ccc(OC(F)(F)F)cc1 [Compound 10o, 3-methyl-8-((pyridin-4-ylmethyl)amino)-2-(4-(trifluoromethoxy)phenyl)-2,7-naphthyridin-1(2H)-one]",–
< 5.30,< 5.30,6.05,–,–,–,–,"Cc1cc2ccnc(NCc3ccnc4ccccc34)c2c(=O)n1-c1ccc(F)cc1F [Compound 10s, 2-(2,4-difluorophenyl)-3-methyl-8-((quinolin-4-ylmethyl)amino)-2,7-naphthyridin-1(2H)-one]",–
< 5.30,< 5.30,< 5.30,–,–,–,–,"Cc1cc2ccnc(NCc3ccco3)c2c(=O)n1-c1ccc(OC(F)(F)F)cc1 [Compound 10p, 8-((furan-2-ylmethyl)amino)-3-methyl-2-(4-(trifluoromethoxy)phenyl)-2,7-naphthyridin-1(2H)-one]",–
< 5.30,< 5.30,< 5.30,–,–,–,–,"Cc1cc2ccnc(NCc3cccnc3)c2c(=O)n1-c1ccc(OC(F)(F)F)cc1 [Compound 10n, 3-methyl-8-((pyridin-3-ylmethyl)amino)-2-(4-(trifluoromethoxy)phenyl)-2,7-naphthyridin-1(2H)-one]",–
